Results reported in US5677318A, “Diphenyl-1,2-3-thiadiazoles as anti-inflammatory agents” (Merck Frosst Canada, Inc., priority 1996, dated 1997).

Columns and labels:
[1] = system: rat paw edema; assay: Rat paw edema assay (carrageenan); format: in vivo, Male Sprague-Dawley rats; details: po, 1 hr before subplantar carrageenan, paw volume at 3 hr, read-out: ED50 (edema inhibition in rat paw)
Description: Male Sprague-Dawley rats (150-200 g) were fasted overnight and were given, po, either vehicle (1% methocel or 5% Tween 80), or a test compound. One hr later, a line was drawn using a permanent marker at the level above the ankle in one hind paw to define the area of the paw to be monitored. The paw volume (V0) was measured using a plethysmometer (Ugo-Basile, Italy) based on the principle of water displacement. The animals were then injected subplantarly with 50 μl of 1% carrageenan solution in saline (FMC Corp, Maine) into the paw using an insulin syringe with a 25-gauge needle (i.e., 500 μg carrageenan per paw). Three hr later, the paw volume (V3) was measured and the increases in paw volume (V3 -V0) were calculated. The animals were sacrificed by CO2 asphyxiation and the absence or presence of stomach lesions scored. Data were compared with the vehicle-control values and percent inhibition calculated. ED50 values were used for comparison. All treatment groups were coded to eliminate observer bias.

[2] = target: T1, COX-2 (Homo sapiens, UniProt P35354); assay: Human whole blood assay, COX-2 (LPS-induced PGE2 production); format: cell-based; details: 24 hours at 37° C
T1 construct: incubation of human whole blood with LPS which induces COX-2; endogenous in cells; host or cells: LPS-stimulated fresh human whole blood (blood cells not specified)
T1 sequence (P35354 18-604): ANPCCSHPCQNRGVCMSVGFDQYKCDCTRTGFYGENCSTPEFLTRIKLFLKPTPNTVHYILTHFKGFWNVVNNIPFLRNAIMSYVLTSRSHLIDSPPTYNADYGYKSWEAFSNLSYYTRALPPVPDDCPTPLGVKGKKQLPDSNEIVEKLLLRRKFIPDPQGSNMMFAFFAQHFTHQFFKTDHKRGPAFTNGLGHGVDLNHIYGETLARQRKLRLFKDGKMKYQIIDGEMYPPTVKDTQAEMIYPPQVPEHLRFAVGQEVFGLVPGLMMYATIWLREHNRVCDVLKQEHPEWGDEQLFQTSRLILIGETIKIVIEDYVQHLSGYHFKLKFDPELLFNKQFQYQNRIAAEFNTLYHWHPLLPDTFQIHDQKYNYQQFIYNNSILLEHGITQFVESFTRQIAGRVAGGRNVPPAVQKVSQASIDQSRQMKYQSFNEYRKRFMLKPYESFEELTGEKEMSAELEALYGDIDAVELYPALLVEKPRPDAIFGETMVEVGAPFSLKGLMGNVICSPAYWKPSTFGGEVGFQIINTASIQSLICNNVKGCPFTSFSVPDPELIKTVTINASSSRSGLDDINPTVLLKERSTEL
Text: (§1) As well, platelets in whole blood contain a large amount of the COX-1 enzyme. Immediately following blood clotting, platelets are activated through a thrombin-mediated mechanism. This reaction results in the production of thromboxane B2 (TxB2) via activation of COX-1.
Fresh blood was collected in heparinized tubes by venipuncture from both male and female volunteers. The subjects had no apparent inflammatory conditions and had not taken any NSAIDs for at least 7 days prior to blood collection. Plasma was immediately obtained from a 2 mL blood aliquot to use as blank (basal levels of PGE2).
(§2) In the assay, inhibition is determined by measuring the amount of prostaglandin E2 (PGE2) synthesized in the presence of arachidonic acid, COX-1 or COX-2 and a putative inhibitor.

[3] = target: T2, COX-1 (Homo sapiens, UniProt P23219); assay: Human whole blood assay, COX-1 (clotting-induced TxB2 production); format: cell-based; details: 1 hour at 37° C
T2 construct: platelets in whole blood contain a large amount of the COX-1 enzyme; endogenous in cells; host or cells: platelets in fresh human whole blood
T2 sequence (P23219 24-599): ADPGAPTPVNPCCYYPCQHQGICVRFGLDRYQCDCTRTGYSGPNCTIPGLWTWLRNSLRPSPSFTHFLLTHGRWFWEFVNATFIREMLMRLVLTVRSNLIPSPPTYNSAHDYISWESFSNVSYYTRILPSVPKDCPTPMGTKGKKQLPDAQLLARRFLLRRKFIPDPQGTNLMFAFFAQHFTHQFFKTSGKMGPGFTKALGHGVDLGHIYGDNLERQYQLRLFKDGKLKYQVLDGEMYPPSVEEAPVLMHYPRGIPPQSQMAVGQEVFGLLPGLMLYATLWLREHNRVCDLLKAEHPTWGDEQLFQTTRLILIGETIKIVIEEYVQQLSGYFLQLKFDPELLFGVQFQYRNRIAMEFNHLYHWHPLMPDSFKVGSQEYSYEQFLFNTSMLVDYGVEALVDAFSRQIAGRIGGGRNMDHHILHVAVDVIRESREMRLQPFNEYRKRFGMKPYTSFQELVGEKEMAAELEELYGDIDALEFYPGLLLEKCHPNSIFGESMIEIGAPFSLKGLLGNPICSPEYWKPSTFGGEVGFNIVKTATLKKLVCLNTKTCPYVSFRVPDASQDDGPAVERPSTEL
Description: as §1
Aliquots of 500 μL were immediately transferred to siliconized microcentrifuge tubes preloaded with 2 μL of either DMSO or a test compound at final concentrations varying from 10 nM to 30 μM.
as §2

Compound	ED50 [1] [mg/kg]	IC50 [2] [µM]	IC50 [3] [µM]
CS(=O)(=O)c1ccc(-c2snnc2-c2ccc(F)cc2)cc1 [Example 2]	0.5	2.8	20
CS(=O)(=O)c1ccc(-c2snnc2-c2cccc(F)c2)cc1 [Example 3]	–	1.3	63
COc1ccc2c(c1)c(CC(=O)O)c(C)n2C(=O)c1ccc(Cl)cc1 [Indomethacin, indomethacin, reference compound]	2	–	–
